Test results: patent US12274684B2, “Treatment of vasculopathy with prostacyclin and mesenchymal stem cells” (United Therapeutics Corporation, priority 2013, dated 2025)

System: human bone marrow MSC
Assay: Microarray gene expression analysis of MSC (Illumina Human HT12 Expression BeadChip)
Assay type: cell-based
Settings: Tre(+) 250 μg/mL, 24 h
Method: Human bone marrow MSC were expanded and seeded into six (6) T225 flasks using standard growth medium (Table 1). At 95-99% confluency, cells were thoroughly washed with PBS. Three (3) flasks were replenished with basal media containing 250 μg/mL treprostinil, (+)Tre, and the remaining three (3) flasks were replenished with unsupplemented basal media, (−)Tre. After 24 hours of culture, representative images were captured from (+) Tre and (−) Tre cultures. Conditioned media was collected from each replicate, divided into two samples of appropriate volumes, and analyzed separately for: 1) secreted proteins (Myriad RBM InflammationMAP® 1.0) and 2) exosome RNA content. Cells were lysed directly from culture flasks, processed for total RNA isolation, and analyzed for gene expression by microarray (Illumina Human HT12 Expression BeadChip). Microarray gene expression analysis was also performed on MSC from cultures without (−) or with (+) 250 ug/mL treprostinil. Three (3) biological replicates from each condition were analyzed. Of the 77,612 sequences identified among all replicates, only 24,273 were detected above the arbitrary background of 50 counts. 2,984 RNA sequences were unique to Tre(−) cultures, while 1,781 RNA sequences were unique to Tre(+) cultures (panel A). Genes detected in both conditions were further analyzed for differential expression (panel). […] Genes that are expressed only in Tre(−) cultures (that is to say, completely turned off in the Tre(+) cultures) are shown in Table 5.

## CCCCC[C@H](O)CC[C@@H]1[C@H]2Cc3cccc(OCC(=O)O)c3C[C@H]2C[C@H]1O [treprostinil]
Tre(−) AVG 543
  CLDN11 (NM_005602) expression, AVG: 13 counts
Tre(−) AVG 559
  FAM198B (NM_001128424) expression, AVG: 15 counts
Tre(−) AVG 613
  SLC7A8 (NM_182728) expression, AVG: 43 counts
Tre(−) AVG 625
  ASPM (NM_018136) expression, AVG: 26 counts
Tre(−) AVG 631
  CPA4 (NM_016352) expression, AVG: 53 counts
Tre(−) AVG 644
  CELF1 (NM_001172640) expression, AVG: 59 counts
Tre(−) AVG 648
  TCF12 (NM_207040) expression, AVG: 40 counts
Tre(−) AVG 652
  SCN2A (NM_021007) expression, AVG: 20 counts
Tre(−) AVG 658
  ASPH (NM_001164754) expression, AVG: 37 counts
Tre(−) AVG 661
  CIT (NM_001206999) expression, AVG: 9 counts
Tre(−) AVG 664
  VEGFA (NM_001171626) expression, AVG: 7603 counts
Tre(−) AVG 669
  ANLN (NM_018685) expression, AVG: 57 counts
Tre(−) AVG 731
  ST8SIA1 (NM_003034) expression, AVG: 45 counts
  TPM1 (NM_001018007) expression, AVG: 36 counts
Tre(−) AVG 733
  FAM84A (NM_145175) expression, AVG: 45 counts
  SPATA20 (NM_022827) expression, AVG: 15 counts
Tre(−) AVG 744
  PRRT2 (NM_145239) expression, AVG: 36 counts
Tre(−) AVG 746
  LRRC17 (NM_001031692) expression, AVG: 22 counts
Tre(−) AVG 780
  ANGPT1 (NM_001146) expression, AVG: 53 counts
Tre(−) AVG 811
  ANK3 (NM_001204403) expression, AVG: 57 counts
Tre(−) AVG 813
  SNX14 (NM_153816) expression, AVG: 18 counts
Tre(−) AVG 814
  RCAN1 (NM_203418) expression, AVG: 8908 counts
Tre(−) AVG 816
  OLFML1 (NM_198474) expression, AVG (Table 5): 42 counts
Tre(−) AVG 857
  RASA4 (NM_006989) expression, AVG: 11 counts
Tre(−) AVG 883
  GDF5 (NM_000557) expression, AVG: 71 counts
Tre(−) AVG 886
  MAP1B (NM_005909) expression, AVG: 42 counts
Tre(−) AVG 918
  C13orf33 (NM_032849) expression, AVG: 19296 counts
Tre(−) AVG 982
  MEOX2 (NM_005924) expression, AVG: 31 counts
Tre(−) AVG 991
  MYLK (NM_053025) expression, AVG: 0 counts
Tre(−) AVG 1036
  SLC14A1 (NM_015865) expression, AVG (Table 5): 19 counts
Tre(−) AVG 1052
  FLG (NM_002016) expression, AVG: 28 counts
Tre(−) AVG 1150
  ARPC4 (NM_001024960) expression, AVG: 12 counts
Tre(−) AVG 1218
  RCAN2 (NM_001251974) expression, AVG: 105 counts
Tre(−) AVG 1272
  EPB41L2 (NM_001199389) expression, AVG: 113 counts
Tre(−) AVG 1281
  SLC2A12 (NM_145176) expression, AVG: 105 counts
Tre(−) AVG 1283
  MEST (NM_002402) expression, AVG: 85 counts
Tre(−) AVG 1299
  METTL7A (NM_014033) expression, AVG: 109 counts
Tre(−) AVG 1312
  S100A4 (NM_002961) expression, AVG: 125 counts
Tre(−) AVG 1316
  RBFOX2 (NM_001031695) expression, AVG: 10 counts
Tre(−) AVG 1459
  ACTN1 (NM_001130005) expression, AVG: 115 counts
Tre(−) AVG 1465
  OLFML2B (NM_015441) expression, AVG: 70 counts
Tre(−) AVG 1474
  PRELP (NM_002725) expression, AVG: 114 counts
Tre(−) AVG 1569
  COL21A1 (NM_030820) expression, AVG: 57 counts
Tre(−) AVG 1621
  SLC14A1 (NM_015865) expression, AVG (Table 4): 88 counts
Tre(−) AVG 1685
  DDAH1 (NM_001134445) expression, AVG: 133 counts
Tre(−) AVG 1722
  LMOD1 (NM_012134) expression, AVG: 65 counts
Tre(−) AVG 1734
  OLFML1 (NM_198474) expression, AVG (Table 4): 140 counts
Tre(−) AVG 1759
  MXRA5 (NM_015419) expression, AVG: 54 counts
Tre(−) AVG 1932
  DKFZp547J0510 (CDNA FLJ42650 fis, clone BRACE3027478) expression, AVG: 148 counts
Tre(−) AVG 1976
  PLIN2 (NM_001122) expression, AVG: 92927 counts
Tre(−) AVG 2551
  SYNPO2 (NM_001128933) expression, AVG: 104 counts
Tre(−) AVG 2719
  ASPH (NM_004318) expression, AVG: 1 counts
Tre(−) AVG 2936
  SREBF1 (NM_001005291) expression, AVG: 12 counts
Tre(−) AVG 3190
  SLC3A2 (NM_001013251) expression, AVG: 33526 counts
Tre(−) AVG 3361
  PDE5A (NM_033430) expression, AVG: 222 counts
Tre(−) AVG 3552
  MEST (NM_177525) expression, AVG: 298 counts
Tre(−) AVG 4013
  RND3 (NM_005168) expression, AVG: 51756 counts
Tre(−) AVG 5533
  ISLR (NM_005545) expression, AVG: 548 counts
Tre(−) AVG 9809
  PALLD (NM_001166109) expression, AVG: 753 counts
Tre(−) AVG 10574
  CXCL12 (NM_199168) expression, AVG: 671 counts
Tre(−) AVG 23012
  CTGF (NM_001901) expression, AVG: 741 counts
Tre(−) AVG 54326
  COL6A3 (NM_004369) expression, AVG: 4635 counts
